Square brackets hold non-standard residues; d marks the D form. Peptide text beside a SMILES is read from it.
Legend:
[1] = target: T1, c-MYC-tagged human delta opioid receptor (Homo sapiens, UniProt P41143); test: Tb-DeltI saturation binding on CHO/MYChDOR cell membranes (time-resolved fluorometry); settings: 0.01 – 781.25 nM Tb-DeltI; 6 μg membranes; pH 7.5, 90 min room temperature; nonspecific with 1 μM DeltI; Figure 4B
Experimental: The cells were collected with PBS + 0.2 % EDTA (w/v) and washed with cold PBS. The CHO/MYChDOR or CHO-K1 cells were suspended into ice-cold 50 mM Tris/HCl, 5 mM EDTA, pH 7.5 and homogenized with Potter S-homogenisator on ice. The homogenate was centrifuged 47800 × g at 4°C and the pellet was suspended into the Tris/EDTA buffer and the homogenization/centrifugation was repeated. The pellet was suspended into cold binding assay incubation buffer and the protein content was measured with the Bradford method.
6 μg of crude membrane preparations or whole cells (25 000 cell/well) that were plated one day before experiment and fixed with 4 % PFA for 10 min at room temperature, were used in the saturation binding experiments. The whole cell assays were carried out on normal cell culture plates and the assays with membrane preparations on special filter plates (Pall Life Sciences). […] Thereafter, 40 μl Delfia enhancer that changes the pH of the assay solution appropriate for Tb-fluorescence was added, and the plates were further incubated for 5 min on a shaker. The time-resolved fluorescence of the released Tb-ion was measured with Victor^2 Multilabel counter (Perkin Elemer Wallac, Turku, Finland).

[2] = target: T1, c-MYC-tagged human delta opioid receptor; test: Tb-DeltI binding on CHO/MYChDOR whole cells, effect of (1DMe)NPYF (time-resolved fluorometry); settings: whole cells, relative BMAX, n = 3
Experimental: 6 μg of crude membrane preparations or whole cells (25 000 cell/well) that were plated one day before experiment and fixed with 4 % PFA for 10 min at room temperature, were used in the saturation binding experiments. The whole cell assays were carried out on normal cell culture plates and the assays with membrane preparations on special filter plates (Pall Life Sciences). The cells or membranes were incubated in 50 mM Tris/HCl pH 7.5; 2.5 mM MgCl2; 60 mM NaCl; 25 μM EDTA, 0.2 % BSA (w/v) for 90 min at room temperature with 0.01 – 781.25 nM Tb-DeltI in the presence or absence of 1 or 5 μM unlabeled DeltI. To study the effect of (1DMe)NPYF on the Tb-DeltI binding, 1–1000 nM (1DMe)NPYF was added together with unlabeled DeltI. After the incubation the unbound Tb-DeltI was removed by washing the plates four times with 50 mM Tris/HCl pH 7.5; 2.5 mM MgCl2. Vacuum pump system was used to wash the filter plates. Since the chelate-bound Tb-ion is nonfluorescent, it needed to be released from the complex. In order to release Tb-ion from the chelate 150 μl Delfia enhancement solution was added to the wells and the plates were incubated on a shaker for 15 min. Thereafter, 40 μl Delfia enhancer that changes the pH of the assay solution appropriate for Tb-fluorescence was added, and the plates were further incubated for 5 min on a shaker. The time-resolved fluorescence of the released Tb-ion was measured with Victor^2 Multilabel counter (Perkin Elemer Wallac, Turku, Finland).

T1 sequence (P41143 whole entry): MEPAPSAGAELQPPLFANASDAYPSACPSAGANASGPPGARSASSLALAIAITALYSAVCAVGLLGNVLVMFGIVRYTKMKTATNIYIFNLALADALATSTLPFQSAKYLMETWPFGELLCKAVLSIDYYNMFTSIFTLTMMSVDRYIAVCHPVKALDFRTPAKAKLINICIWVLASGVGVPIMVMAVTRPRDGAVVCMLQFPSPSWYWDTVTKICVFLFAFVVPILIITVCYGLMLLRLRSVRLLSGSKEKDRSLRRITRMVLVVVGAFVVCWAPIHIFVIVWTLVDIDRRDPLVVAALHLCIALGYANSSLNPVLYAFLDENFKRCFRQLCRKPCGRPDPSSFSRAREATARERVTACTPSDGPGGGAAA

CC(C)[C@H](NC(=O)[C@H](CC(=O)O)NC(=O)[C@H](Cc1ccccc1)NC(=O)[C@@H](C)NC(=O)[C@H](Cc1ccc(O)cc1)NC(=O)[C@@H](N)CS)C(=O)N[C@H](C(=O)NCC(N)=O)C(C)C [Tb-DeltI] (H-CY[dA]FDVVG-NH2; N-terminus and C-terminus assumed)
Tb-DeltI binding to cell membranes [1]: dose-dependently and the binding was saturable at a nanomolar range
BMAX for Tb-DeltI ([2]; 0 nM (1DMe)NPYF): 1.60 ± 0.06 pmol/cell
BMAX for Tb-DeltI ([2]; in presence of 1 nM (1DMe)NPYF, *** p < 0.001 vs absence of (1DMe)NPYF): 0.70 ± 0.08 *** pmol/cell
BMAX for Tb-DeltI ([2]; in presence of 10 nM (1DMe)NPYF, *** p < 0.001 vs absence of (1DMe)NPYF): 0.89 ± 0.06 *** pmol/cell
BMAX for Tb-DeltI ([2]; in presence of 100 nM (1DMe)NPYF): 1.42 ± 0.11 pmol/cell
BMAX for Tb-DeltI ([2]; in presence of 1000 nM (1DMe)NPYF): 1.49 ± 0.10 pmol/cell

— PMC1079869 (BMC Neuroscience, 2005)
